Assay results as given in article PMC10511319, “Bacterial pathogens deliver water- and solute-permeable channels to plant cells” (Nature, 2023).

What was measured:
AvrE [1] = target: T1, AvrE (Pseudomonas syringae group genomosp. 3, UniProt Q887C9); test: oocyte fluorescent dye uptake; type: cell-based; details: 5 µg/ml fluorescein in ND96 saline; 20 ng avrE cRNA; permeation through channel
T1 construct: full-length untagged ORF in pGH19, cRNA-injected Xenopus laevis oocytes

DspE = target: T2, DspE (Erwinia amylovora, UniProt O54581); type: cell-based; details: current at 50 mV test pulse; ND96 saline, pH 7.5; channel block
T2 construct: full-length untagged ORF in pGH19, cRNA-injected Xenopus laevis oocytes; strain of oocyte clone not restated

DspE (MBP–DspE) = target: T3, DspE (MBP–DspE) (Erwinia amylovora, UniProt O54581); test: liposome carboxyfluorescein release; type: biochemical; details: soybean liposomes; 0.05–0.15 µM DspE; 20 mM HEPES, 300 mM NaCl, pH 8.0; channel block
T3 construct: full-length DspE fused to MBP-His8-PPX-Flag; made in E. coli BL21(DE3)

AvrE [2] = target: T1, AvrE; test: two-electrode voltage clamp, Xenopus oocytes; type: cell-based; details: current at 50 mV test pulse; ND96 saline, pH 7.5; channel block

T1 sequence (Q887C9 whole entry): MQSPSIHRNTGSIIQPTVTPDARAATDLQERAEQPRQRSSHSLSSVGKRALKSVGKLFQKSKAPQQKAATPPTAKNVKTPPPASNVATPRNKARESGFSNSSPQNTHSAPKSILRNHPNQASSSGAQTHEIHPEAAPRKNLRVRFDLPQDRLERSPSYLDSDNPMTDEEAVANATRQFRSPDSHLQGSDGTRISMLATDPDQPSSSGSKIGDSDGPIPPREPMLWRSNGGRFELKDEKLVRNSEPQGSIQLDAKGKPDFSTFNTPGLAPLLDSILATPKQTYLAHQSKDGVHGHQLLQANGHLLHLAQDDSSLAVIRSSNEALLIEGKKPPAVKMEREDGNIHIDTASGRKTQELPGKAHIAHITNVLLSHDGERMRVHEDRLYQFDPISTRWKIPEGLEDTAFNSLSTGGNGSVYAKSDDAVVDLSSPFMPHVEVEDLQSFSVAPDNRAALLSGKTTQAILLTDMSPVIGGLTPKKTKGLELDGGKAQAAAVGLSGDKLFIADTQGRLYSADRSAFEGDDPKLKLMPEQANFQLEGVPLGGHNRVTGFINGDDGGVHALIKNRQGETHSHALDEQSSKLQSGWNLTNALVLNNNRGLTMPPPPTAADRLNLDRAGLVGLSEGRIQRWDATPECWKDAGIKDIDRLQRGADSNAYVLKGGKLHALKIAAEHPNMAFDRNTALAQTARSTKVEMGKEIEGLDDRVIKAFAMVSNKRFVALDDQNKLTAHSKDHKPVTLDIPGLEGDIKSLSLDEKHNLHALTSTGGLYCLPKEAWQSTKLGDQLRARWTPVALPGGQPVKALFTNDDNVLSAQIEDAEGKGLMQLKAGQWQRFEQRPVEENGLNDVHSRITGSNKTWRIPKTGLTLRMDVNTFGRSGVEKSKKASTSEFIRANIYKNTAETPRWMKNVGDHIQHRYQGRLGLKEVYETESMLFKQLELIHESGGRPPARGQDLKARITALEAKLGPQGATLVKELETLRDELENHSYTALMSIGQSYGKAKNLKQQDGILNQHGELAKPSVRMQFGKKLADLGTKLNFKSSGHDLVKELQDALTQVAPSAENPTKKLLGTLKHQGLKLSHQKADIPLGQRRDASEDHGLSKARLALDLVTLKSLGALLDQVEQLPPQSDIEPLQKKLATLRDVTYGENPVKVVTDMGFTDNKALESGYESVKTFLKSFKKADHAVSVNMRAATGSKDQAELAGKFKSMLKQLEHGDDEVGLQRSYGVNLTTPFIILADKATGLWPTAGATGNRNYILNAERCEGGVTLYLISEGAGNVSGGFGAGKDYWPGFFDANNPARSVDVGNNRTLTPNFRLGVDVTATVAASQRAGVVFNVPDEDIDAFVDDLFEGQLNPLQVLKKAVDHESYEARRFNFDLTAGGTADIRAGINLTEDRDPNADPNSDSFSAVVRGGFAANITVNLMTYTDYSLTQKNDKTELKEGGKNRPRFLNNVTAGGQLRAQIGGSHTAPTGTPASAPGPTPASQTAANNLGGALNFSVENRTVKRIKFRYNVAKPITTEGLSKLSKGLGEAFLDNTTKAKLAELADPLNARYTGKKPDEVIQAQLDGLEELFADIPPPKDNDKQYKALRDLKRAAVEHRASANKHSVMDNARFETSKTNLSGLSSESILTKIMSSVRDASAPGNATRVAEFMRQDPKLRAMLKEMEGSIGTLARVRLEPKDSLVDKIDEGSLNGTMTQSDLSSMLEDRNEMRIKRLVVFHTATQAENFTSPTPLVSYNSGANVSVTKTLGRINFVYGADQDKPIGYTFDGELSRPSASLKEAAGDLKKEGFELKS
T2 sequence (O54581 whole entry): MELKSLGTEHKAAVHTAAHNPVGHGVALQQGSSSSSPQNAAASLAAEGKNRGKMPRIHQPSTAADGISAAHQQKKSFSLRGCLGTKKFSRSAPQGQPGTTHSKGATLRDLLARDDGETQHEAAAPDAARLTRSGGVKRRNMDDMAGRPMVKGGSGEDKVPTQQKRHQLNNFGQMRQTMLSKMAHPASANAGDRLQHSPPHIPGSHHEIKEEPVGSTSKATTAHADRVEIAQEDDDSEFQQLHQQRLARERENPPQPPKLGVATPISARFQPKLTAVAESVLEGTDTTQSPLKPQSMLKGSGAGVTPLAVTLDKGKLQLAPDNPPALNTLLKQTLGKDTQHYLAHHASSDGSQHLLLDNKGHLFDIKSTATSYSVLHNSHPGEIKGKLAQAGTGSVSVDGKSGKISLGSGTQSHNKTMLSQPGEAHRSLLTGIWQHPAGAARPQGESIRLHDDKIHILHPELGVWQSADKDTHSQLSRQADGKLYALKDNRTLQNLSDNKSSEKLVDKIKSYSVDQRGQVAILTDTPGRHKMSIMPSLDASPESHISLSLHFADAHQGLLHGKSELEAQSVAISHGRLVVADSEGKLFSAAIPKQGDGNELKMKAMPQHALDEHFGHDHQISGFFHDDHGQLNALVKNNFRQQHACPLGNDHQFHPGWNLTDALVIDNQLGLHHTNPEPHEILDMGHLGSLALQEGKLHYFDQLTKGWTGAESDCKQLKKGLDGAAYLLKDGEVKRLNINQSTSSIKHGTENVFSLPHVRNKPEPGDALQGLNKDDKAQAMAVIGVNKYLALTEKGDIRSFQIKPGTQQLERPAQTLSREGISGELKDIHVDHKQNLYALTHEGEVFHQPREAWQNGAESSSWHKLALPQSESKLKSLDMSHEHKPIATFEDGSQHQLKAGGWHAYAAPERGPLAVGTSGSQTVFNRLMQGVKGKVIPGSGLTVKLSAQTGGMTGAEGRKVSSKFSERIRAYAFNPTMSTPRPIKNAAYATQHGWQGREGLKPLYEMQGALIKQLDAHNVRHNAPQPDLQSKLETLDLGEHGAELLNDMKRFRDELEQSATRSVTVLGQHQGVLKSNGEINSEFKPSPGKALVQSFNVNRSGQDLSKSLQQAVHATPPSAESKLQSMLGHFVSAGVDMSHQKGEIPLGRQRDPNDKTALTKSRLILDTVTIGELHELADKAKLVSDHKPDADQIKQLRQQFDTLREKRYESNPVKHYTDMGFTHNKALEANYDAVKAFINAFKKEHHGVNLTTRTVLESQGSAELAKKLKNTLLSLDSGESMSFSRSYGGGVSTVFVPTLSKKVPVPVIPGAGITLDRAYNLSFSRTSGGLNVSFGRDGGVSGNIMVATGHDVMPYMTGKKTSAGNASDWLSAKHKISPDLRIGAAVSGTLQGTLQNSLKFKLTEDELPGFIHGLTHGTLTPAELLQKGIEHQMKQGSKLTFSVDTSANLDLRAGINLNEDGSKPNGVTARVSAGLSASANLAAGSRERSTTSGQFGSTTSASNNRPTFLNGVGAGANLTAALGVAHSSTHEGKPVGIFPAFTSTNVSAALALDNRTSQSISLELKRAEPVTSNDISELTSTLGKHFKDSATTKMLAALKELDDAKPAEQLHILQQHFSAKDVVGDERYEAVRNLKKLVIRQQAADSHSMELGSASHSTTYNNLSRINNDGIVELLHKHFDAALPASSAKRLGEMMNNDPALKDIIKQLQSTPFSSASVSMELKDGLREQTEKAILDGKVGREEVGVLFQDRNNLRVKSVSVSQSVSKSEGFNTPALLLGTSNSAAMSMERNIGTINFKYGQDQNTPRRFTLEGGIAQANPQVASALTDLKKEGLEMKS

Molecule: O=C1OC2(c3ccc(O)cc3Oc3cc(O)ccc32)c2ccccc21 [fluorescein]
- oocyte fluorescent dye uptake (AvrE [1]): fluorescein entered oocytes expressing DspE or AvrE, whereas eGFP could not

Molecule: PAMAM G0
- % inhibition at 10 mM (DspE): 68%

Molecule: PAMAM G1
- IC50 (DspE (MBP–DspE)): 31 µM
- % inhibition at 10 mM (DspE): 71%
- % inhibition at 10 mM (AvrE [2]): 93%
